The record followed here is ChEMBL document CHEMBL1201862, “PubChem BioAssay data set” (2004).

The structures appear in SMILES notation.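 Exposure lasted 48 hours, with cells grown in 96-well plates and compounds tested at five concentrations. GI50 is the concentration that inhibits growth by half.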 Active and inactive are the calls of the source. Rule as the data show it: active = GI50 up to about 1.1 µM and inactive = higher. Where only a bound is given, the exact number is not on record here.

Some test systems named below: 786-0; A549; COLO 205; EKVX; HOP-92; HT-29; K562; MOLT-4; Malme-3M; NCI-H23; RPMI-8226; SK-MEL-28; SNB-19; SR; U-251; UACC-62; UO-31.
Experiment in all cases: inhibition of tumour cell growth, NCI panel, 48 h

`CCOC(=O)C1Cc2c(ccc(OC)c2OC)C(=O)C1N` (stereo not drawn): the GI50 in the test on 786-0 is > 100 µM (inactive); with A549, > 100 µM (inactive); with COLO 205, > 100 µM (inactive); in the test with EKVX, 21.5 µM (inactive); with HOP-92, > 100 µM (inactive); with HT-29 it was > 100 µM (inactive). For the same compound, the GI50 in the test with K562 is > 100 µM (inactive); in the test with MOLT-4, 91.4 µM (inactive); in the test with Malme-3M, > 100 µM (inactive); in the test on NCI-H23, > 100 µM (inactive); with RPMI-8226, > 100 µM (inactive); in the test with SK-MEL-28, > 100 µM (inactive). The GI50 with SNB-19 is > 100 µM (inactive); in the test on SR it was 41.2 µM (inactive); with U-251 it was > 100 µM (inactive); with UACC-62, > 100 µM (inactive); with UO-31 it was > 100 µM (inactive).
Turning to `OC1C2CCC1C1C3C=CC(C3)C21` (stereo not drawn), the GI50 is > 100 µM (inactive) in the test with 786-0; 57 µM (inactive) with A549; > 100 µM (inactive) with COLO 205; > 100 µM (inactive) in the test on EKVX; 34.4 µM (inactive) with HOP-92; > 100 µM (inactive) in the test with HT-29. In addition, the GI50 was 70.6 µM (inactive) in the test on K562; 64.9 µM (inactive) with MOLT-4; > 100 µM (inactive) in the test on Malme-3M; 52.1 µM (inactive) with NCI-H23; 42.9 µM (inactive) in the test with RPMI-8226; > 100 µM (inactive) with SK-MEL-28. In addition, the GI50 in the test with SNB-19 was > 100 µM (inactive); in the test on SR it was 54.7 µM (inactive); in the test with U-251, > 100 µM (inactive); in the test on UACC-62 it was > 100 µM (inactive); with UO-31, > 100 µM (inactive).
For `O=C1CC2C=CC1C2CO` (stereo not drawn), the GI50 with 786-0, in the test on A549, in the test on COLO 205, in the test with EKVX, in the test on HOP-92 and with HT-29 was > 100 µM (inactive) in each case. Also, the GI50 in the test on MOLT-4, with Malme-3M, in the test with RPMI-8226, in the test on SK-MEL-28, in the test on SNB-19 and in the test with SR was > 100 µM (inactive) throughout. Moreover, the GI50 in the test on U-251, in the test on UACC-62 and with UO-31 was > 100 µM (inactive) each time.
With `COC(=O)CCC(=O)N1C/C(=C\c2ccccc2)C(=O)/C(=C/c2ccccc2)C1`, the GI50 in the test with 786-0 is 2.03 µM (inactive); in the test on A549 it was 3.64 µM (inactive); in the test with COLO 205 it was 2.06 µM (inactive); with EKVX, 3.94 µM (inactive); in the test on HOP-92 it was 6.03 µM (inactive); with HT-29 it was 1.72 µM (inactive). Further, the GI50 was 1.43 µM (inactive) in the test on K562; 1.83 µM (inactive) with MOLT-4; 2.34 µM (inactive) in the test with Malme-3M; 2.14 µM (inactive) in the test with NCI-H23; 0.416 µM (active) in the test with RPMI-8226; 2.31 µM (inactive) in the test on SK-MEL-28. Also, the GI50 is 3.82 µM (inactive) with SNB-19; 1.18 µM (inactive) in the test on SR; 1.24 µM (inactive) with U-251; 2.11 µM (inactive) with UACC-62; 2.04 µM (inactive) with UO-31.
For the compound `CN1C2(c3ccccc3)C(C(=O)c3ccccc3)=C(C(=O)c3ccccc3)C1(c1ccccc1)c1c(-c3ccccc3)sc(-c3ccccc3)c12`, the GI50 with 786-0, in the test on A549, in the test with COLO 205, with EKVX, in the test on HOP-92 and with HT-29 was > 100 µM (inactive) throughout. For the same compound, the GI50 in the test on K562, with Malme-3M, in the test on NCI-H23, in the test on RPMI-8226, with SK-MEL-28 and with SNB-19 was > 100 µM (inactive) each time. Moreover, the GI50 in the test on SR, with U-251, with UACC-62 and with UO-31 was > 100 µM (inactive) each time.
On to `C=C1C(=O)C23[C@H](O)C1CC[C@H]2[C@]12COC3(O)[C@@H](O)[C@@H]1C(C)(C)CC[C@@H]2O`, for which the GI50 in the test with 786-0 was 11 µM (inactive); in the test on A549, 23.3 µM (inactive); with COLO 205, 0.452 µM (active); with EKVX it was 19.7 µM (inactive); in the test with HOP-92, 3.95 µM (inactive); with HT-29, 14.4 µM (inactive). The GI50 in the test on K562 was 3.09 µM (inactive); in the test with MOLT-4, 3.27 µM (inactive); in the test with Malme-3M, 2.49 µM (inactive); in the test on NCI-H23, 13.5 µM (inactive); in the test with RPMI-8226, 4.08 µM (inactive); in the test with SK-MEL-28, 2.72 µM (inactive). Further, the GI50 in the test with SNB-19 was 18.5 µM (inactive); in the test on SR, 1.34 µM (inactive); with U-251, 6.04 µM (inactive); in the test with UACC-62, 10.9 µM (inactive); in the test on UO-31, 15.4 µM (inactive).
Regarding `CC(=O)CN(Cc1cc(C)c2c(c1)c1ccccc1n2Cc1ccccc1)S(=O)(=O)c1ccc(C)cc1`, the GI50 in the test on 786-0, with A549, with COLO 205, in the test with EKVX, in the test on HOP-92 and in the test on HT-29 was > 100 µM (inactive) each time. For the same compound, the GI50 in the test with K562, with MOLT-4, in the test on Malme-3M, with NCI-H23, in the test with RPMI-8226 and in the test with SK-MEL-28 was > 100 µM (inactive) throughout. Moreover, the GI50 was > 100 µM (inactive) in the test with SNB-19, > 100 µM (inactive) in the test on SR, > 100 µM (inactive) in the test on UACC-62 and 57.7 µM (inactive) in the test with UO-31.
In the case of `O=C(CNC(=O)OCc1ccccc1)Oc1ccccc1`, the GI50 with 786-0, with A549, in the test with COLO 205, in the test on EKVX, in the test on HOP-92 and in the test with HT-29 was > 100 µM (inactive) each time. The GI50 with K562, with MOLT-4, in the test with Malme-3M, in the test with NCI-H23, in the test on RPMI-8226 and in the test on SK-MEL-28 was > 100 µM (inactive) throughout. Moreover, the GI50 with SR, with U-251, in the test with UACC-62 and with UO-31 was > 100 µM (inactive) throughout.
Turning to `COc1cccc(/C=N/NC(N)=O)c1O`, the GI50 in the test with 786-0, in the test on A549, with COLO 205, in the test on EKVX, with HOP-92 and in the test with HT-29 was > 100 µM (inactive) throughout. Moreover, the GI50 in the test on K562, with MOLT-4, in the test on Malme-3M, with NCI-H23, in the test with RPMI-8226 and in the test on SK-MEL-28 was > 100 µM (inactive) in each case. Besides, the GI50 in the test on SNB-19 was > 100 µM (inactive); with SR it was 0.0603 µM (active); in the test on U-251, > 100 µM (inactive); in the test on UACC-62, > 100 µM (inactive); in the test with UO-31 it was > 100 µM (inactive).
